Experimental data: ChEMBL document CHEMBL5696442, “Discovery of type II inhibitors of TGFβ-activated kinase 1 (TAK1) and mitogen-activated protein kinase kinase kinase kinase 2 (MAP4K2)” (J Med Chem, 2015)
Active and inactive are the calls of the source. The rule behind the calls is not given here.

Key:
[1] = biological target: Mitogen-activated protein kinase kinase kinase 9 (Homo sapiens) (UniProt P80192); assay: Inhibition of MLK1 (unknown origin) at 10 uM by Ambit Kinomescan binding assay
[2] = biological target: Phosphatidylinositol 4-phosphate 5-kinase type-1 alpha (Homo sapiens) (UniProt Q99755); assay: Inhibition of PIP5K1A (unknown origin) at 10 uM by Ambit Kinomescan binding assay
Phosphatidylinositol 4-phosphate 5-kinase type-1 alpha (Homo sapiens), sequence (Q99755 whole entry): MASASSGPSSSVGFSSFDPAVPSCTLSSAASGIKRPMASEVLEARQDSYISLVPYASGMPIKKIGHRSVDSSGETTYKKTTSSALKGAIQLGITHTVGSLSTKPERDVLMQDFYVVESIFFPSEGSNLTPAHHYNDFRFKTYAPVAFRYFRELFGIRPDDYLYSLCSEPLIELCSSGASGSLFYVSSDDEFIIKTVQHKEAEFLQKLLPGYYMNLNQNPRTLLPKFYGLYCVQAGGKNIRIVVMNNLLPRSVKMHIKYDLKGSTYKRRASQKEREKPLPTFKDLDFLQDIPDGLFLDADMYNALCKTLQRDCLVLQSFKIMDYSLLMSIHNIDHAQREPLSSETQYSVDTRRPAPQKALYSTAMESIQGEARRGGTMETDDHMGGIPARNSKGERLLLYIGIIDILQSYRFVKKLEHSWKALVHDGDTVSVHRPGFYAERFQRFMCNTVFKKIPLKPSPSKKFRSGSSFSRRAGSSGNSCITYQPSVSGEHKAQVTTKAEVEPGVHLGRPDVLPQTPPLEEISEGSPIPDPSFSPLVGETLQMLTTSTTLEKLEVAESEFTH

[3] = biological target: Testis-specific serine/threonine-protein kinase 1 (Homo sapiens) (UniProt Q9BXA7); assay: Inhibition of TSSK1B (unknown origin) at 10 uM by Ambit Kinomescan binding assay
Testis-specific serine/threonine-protein kinase 1 (Homo sapiens), sequence (Q9BXA7 whole entry): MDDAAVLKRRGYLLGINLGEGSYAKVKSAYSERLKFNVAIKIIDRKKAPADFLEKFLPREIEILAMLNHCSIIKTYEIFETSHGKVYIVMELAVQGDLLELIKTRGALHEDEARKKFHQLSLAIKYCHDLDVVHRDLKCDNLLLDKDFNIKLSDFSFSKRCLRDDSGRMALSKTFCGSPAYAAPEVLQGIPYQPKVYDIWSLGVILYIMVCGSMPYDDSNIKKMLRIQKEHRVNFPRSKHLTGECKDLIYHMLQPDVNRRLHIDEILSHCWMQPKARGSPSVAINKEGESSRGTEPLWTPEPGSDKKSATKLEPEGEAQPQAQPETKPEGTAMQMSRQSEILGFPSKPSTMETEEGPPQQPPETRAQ

[4] = biological target: Tyrosine-protein kinase CSK (Homo sapiens, UniProt P41240); assay: Inhibition of CSK ACT labeling site harbouring VSDFGLTKEASSTQDTGK in human A-375 cells at 0.05 uM by KiNativ Profiling analysis relative to control; format: cell-based
Tyrosine-protein kinase CSK, sequence (P41240 2-450 limits assumed): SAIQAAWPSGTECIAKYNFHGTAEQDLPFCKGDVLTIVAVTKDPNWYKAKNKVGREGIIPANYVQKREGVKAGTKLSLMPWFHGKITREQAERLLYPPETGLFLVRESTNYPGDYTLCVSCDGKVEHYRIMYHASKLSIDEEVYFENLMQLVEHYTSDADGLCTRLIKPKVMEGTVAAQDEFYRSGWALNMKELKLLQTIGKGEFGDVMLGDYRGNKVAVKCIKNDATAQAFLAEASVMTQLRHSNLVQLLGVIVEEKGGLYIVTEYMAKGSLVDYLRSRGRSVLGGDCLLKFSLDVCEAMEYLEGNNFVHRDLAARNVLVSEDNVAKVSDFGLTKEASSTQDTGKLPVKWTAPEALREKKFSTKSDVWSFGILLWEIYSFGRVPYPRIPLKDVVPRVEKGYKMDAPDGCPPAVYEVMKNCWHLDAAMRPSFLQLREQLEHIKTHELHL

[5] = biological target: AMPK alpha1/alpha2 (Homo sapiens) (UniProt P54646+Q13131); assay: Inhibition of AMPK alpha 1/2 K1 labeling site in human Huh-7 cells at 10 uM by KiNativ Profiling analysis relative to control; format: cell-based
AMPK alpha1/alpha2 (Homo sapiens), sequence (P54646 whole entry, looked up): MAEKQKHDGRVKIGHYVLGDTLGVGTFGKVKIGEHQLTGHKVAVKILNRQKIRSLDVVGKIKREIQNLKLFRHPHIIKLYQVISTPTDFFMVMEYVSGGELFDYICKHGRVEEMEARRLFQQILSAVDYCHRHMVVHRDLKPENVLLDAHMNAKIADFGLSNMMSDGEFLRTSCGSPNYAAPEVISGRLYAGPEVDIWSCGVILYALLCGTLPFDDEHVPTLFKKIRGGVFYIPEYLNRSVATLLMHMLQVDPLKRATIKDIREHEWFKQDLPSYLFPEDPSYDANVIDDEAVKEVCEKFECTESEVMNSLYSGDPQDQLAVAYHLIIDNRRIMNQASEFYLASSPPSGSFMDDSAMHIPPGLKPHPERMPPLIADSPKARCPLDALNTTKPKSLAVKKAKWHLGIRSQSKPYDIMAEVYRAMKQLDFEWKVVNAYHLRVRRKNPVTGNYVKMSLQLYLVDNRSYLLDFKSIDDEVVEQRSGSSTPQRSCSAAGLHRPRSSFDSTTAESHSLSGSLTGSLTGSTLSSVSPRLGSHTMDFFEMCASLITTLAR
AMPK alpha1/alpha2 (Homo sapiens), sequence (Q13131 whole entry, looked up): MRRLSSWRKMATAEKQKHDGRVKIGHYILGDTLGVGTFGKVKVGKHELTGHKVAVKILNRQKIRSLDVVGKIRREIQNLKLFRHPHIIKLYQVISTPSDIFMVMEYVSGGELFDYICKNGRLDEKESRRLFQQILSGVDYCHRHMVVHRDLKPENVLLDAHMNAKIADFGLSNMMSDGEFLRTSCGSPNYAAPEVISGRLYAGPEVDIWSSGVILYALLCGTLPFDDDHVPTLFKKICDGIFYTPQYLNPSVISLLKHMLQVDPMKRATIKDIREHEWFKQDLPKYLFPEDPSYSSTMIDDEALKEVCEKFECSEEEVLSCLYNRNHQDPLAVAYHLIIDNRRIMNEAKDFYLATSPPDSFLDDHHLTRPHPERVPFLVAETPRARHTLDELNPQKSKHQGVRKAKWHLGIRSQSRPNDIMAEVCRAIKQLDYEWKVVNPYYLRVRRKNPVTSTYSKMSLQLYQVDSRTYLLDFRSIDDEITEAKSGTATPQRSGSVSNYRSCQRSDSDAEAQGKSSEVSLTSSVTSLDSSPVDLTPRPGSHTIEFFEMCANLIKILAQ

[6] = Inhibition of NEK6/7 K2 labeling site harbouring DIKPANVFITATGVVK in human Huh-7 cells at 10 uM by KiNativ Profiling analysis relative to control; conditions: condition cancer
[7] = biological target: T1, Serine/threonine-protein kinase TAO2 (Homo sapiens) (UniProt Q9UL54); assay: Inhibition of TAO2 K2 labeling site in human Huh-7 cells at 10 uM by KiNativ Profiling analysis relative to control; format: cell-based
T1 sequence (whole entry): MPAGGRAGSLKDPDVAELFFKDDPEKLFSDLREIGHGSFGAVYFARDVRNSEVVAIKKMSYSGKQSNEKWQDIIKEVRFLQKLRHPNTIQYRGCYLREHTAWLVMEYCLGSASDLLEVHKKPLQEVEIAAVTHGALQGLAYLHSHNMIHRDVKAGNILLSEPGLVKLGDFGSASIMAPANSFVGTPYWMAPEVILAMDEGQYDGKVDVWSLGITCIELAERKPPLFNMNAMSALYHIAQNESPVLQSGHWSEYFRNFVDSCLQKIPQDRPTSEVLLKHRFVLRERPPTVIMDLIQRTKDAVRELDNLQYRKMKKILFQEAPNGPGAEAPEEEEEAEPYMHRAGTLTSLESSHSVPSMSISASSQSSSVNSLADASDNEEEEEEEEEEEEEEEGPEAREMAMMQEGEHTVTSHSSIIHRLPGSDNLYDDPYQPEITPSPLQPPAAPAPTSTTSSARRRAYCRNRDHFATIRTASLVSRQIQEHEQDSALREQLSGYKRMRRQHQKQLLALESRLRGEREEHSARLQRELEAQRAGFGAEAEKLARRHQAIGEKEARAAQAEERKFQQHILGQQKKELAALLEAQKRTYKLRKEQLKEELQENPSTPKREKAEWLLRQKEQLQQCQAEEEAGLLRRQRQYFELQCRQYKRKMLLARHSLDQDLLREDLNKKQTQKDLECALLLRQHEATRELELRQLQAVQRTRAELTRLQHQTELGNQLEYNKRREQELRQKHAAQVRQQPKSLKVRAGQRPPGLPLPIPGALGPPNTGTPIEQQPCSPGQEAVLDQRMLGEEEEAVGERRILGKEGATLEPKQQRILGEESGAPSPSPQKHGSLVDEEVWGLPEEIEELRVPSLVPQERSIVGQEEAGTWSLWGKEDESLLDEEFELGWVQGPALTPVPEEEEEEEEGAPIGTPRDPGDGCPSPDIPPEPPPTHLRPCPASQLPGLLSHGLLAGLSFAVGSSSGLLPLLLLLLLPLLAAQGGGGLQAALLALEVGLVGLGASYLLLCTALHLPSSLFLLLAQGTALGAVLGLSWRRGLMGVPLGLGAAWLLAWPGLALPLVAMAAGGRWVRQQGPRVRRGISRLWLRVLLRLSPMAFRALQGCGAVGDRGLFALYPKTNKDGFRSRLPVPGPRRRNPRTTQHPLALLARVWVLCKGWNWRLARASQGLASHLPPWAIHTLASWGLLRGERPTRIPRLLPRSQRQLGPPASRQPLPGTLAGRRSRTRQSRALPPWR

[8] = biological target: T2, Serine/threonine-protein kinase ULK1 (Homo sapiens) (UniProt O75385); assay: Inhibition of ULK1 Lys2 labeling site in human A-375 cells at 5 uM by KiNativ Profiling analysis relative to control; format: cell-based
T2 sequence (whole entry): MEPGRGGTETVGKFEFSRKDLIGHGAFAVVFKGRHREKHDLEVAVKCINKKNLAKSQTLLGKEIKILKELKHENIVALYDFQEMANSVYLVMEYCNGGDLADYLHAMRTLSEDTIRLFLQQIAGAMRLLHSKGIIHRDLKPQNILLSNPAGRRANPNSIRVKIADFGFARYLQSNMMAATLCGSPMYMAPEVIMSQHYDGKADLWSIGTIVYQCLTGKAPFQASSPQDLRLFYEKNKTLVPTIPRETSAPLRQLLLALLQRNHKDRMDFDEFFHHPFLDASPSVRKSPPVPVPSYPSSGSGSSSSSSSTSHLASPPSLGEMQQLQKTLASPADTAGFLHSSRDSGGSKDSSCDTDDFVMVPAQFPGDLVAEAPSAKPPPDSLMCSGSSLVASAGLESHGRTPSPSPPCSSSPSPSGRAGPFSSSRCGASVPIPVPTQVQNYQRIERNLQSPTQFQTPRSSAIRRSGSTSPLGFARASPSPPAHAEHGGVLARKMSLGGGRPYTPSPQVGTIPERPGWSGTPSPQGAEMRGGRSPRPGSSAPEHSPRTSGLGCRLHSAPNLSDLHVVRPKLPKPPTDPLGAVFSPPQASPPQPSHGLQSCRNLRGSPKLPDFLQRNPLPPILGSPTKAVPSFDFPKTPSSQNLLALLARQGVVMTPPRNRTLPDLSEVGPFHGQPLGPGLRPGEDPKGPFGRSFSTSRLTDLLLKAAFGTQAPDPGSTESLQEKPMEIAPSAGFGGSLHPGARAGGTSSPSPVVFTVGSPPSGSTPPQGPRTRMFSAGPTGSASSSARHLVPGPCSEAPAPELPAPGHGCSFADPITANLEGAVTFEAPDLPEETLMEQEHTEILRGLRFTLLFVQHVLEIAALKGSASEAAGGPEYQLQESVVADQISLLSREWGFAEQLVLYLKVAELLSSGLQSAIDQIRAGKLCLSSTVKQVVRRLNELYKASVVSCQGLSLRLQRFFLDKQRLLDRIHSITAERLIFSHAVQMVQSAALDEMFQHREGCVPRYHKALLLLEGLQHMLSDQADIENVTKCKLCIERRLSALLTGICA

Mitogen-activated protein kinase kinase kinase 9 (Homo sapiens), sequence (P80192 whole entry, looked up): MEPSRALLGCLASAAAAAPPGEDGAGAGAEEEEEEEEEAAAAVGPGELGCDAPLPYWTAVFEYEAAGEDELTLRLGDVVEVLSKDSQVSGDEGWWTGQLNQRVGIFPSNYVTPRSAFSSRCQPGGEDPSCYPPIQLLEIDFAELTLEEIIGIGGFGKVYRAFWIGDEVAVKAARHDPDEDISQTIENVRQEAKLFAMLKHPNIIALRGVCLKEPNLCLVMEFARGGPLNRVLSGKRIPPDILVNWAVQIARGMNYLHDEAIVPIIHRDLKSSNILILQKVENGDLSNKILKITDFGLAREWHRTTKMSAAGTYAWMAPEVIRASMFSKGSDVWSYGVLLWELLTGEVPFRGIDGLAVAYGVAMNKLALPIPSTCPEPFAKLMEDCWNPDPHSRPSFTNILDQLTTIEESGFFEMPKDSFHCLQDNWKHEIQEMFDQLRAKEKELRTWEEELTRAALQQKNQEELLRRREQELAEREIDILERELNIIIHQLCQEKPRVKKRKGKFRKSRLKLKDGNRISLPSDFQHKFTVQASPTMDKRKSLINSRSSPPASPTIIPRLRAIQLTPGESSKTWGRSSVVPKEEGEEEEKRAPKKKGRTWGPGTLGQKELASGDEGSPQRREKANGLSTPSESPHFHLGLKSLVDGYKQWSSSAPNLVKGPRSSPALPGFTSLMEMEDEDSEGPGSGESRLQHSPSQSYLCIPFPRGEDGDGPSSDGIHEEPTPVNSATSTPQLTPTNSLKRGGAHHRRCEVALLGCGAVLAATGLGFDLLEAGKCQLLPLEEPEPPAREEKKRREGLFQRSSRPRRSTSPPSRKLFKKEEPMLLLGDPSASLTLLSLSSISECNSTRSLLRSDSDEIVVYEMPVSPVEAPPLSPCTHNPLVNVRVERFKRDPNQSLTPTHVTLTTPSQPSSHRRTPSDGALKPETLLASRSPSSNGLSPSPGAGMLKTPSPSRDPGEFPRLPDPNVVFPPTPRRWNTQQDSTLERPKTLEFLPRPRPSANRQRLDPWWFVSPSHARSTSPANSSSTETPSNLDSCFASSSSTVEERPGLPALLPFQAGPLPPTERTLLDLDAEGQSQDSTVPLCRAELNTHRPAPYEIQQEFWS

With `CCN1CCN(Cc2ccc(NC(=O)c3ccc(C)c(Oc4ccnc5[nH]ccc45)c3)cc2C(F)(F)F)CC1` the inhibition [1] was “inactive”, the inhibition [2] was “inactive” and the inhibition [3] was “inactive”. The inhibition [4] was 23.1%, the inhibition [5] was 34.6% and the inhibition at 10 µM [6] was 2.8%. The inhibition [7] was 28.6%.

Compound `CCN1CCN(Cc2ccc(NC(=O)c3ccc(C)c(/C=C/c4cnc5[nH]ccc5c4OC)c3)cc2C(F)(F)F)CC1` has an inhibition [8] of -1.3%.
